Key:
Experiment in all cases: relative viability (nuclei count vs DMSO), 5 days (fraction); higher = more cells survive
[1] = tested on: HCC-15
How it was run: (§1)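 One day after seeding in 1536-well plates, lung cancer cell lines were dosed by pin tool. Dosing was either single-drug or a fixed anchor-drug dose plus five library-drug doses (not always all listed) in √10 steps. After 5 days, nuclei were stained in one fix-and-stain step and counted on 4× images, and relative viability is the nuclei count of treated wells over that of vehicle wells, given as the median of duplicate plates.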

[2] = tested on: NCI-H522
How it was run: as §1

[3] = tested on: NCI-H2126
How it was run: as §1

[4] = tested on: NCI-H1993
How it was run: as §1

[5] = tested on: PC-14
How it was run: as §1

[6] = tested on: HCC-44
How it was run: as §1

[7] = tested on: CAL-12T
How it was run: as §1

[8] = tested on: LXF-289
How it was run: as §1

[9] = tested on: BEN
How it was run: as §1

[10] = tested on: HCC-827
How it was run: as §1

[11] = tested on: PC-3 [JPC-3]
How it was run: as §1

[12] = tested on: NCI-H2170
How it was run: as §1

[13] = tested on: LU99A
How it was run: as §1

[14] = tested on: LCLC-97TM1
How it was run: as §1

[15] = tested on: HOP-62
How it was run: as §1

[16] = tested on: HARA
How it was run: as §1

[17] = tested on: NCI-H727
How it was run: as §1

[18] = tested on: LC-2-ad
How it was run: as §1

[19] = tested on: NCI-H2087
How it was run: as §1

[20] = tested on: HCC-366
How it was run: as §1

[21] = tested on: COR-L 105
How it was run: as §1

[22] = tested on: NCI-H2009
How it was run: as §1

[23] = tested on: SK-MES-1
How it was run: as §1

[24] = tested on: COR-L23
How it was run: as §1

CCCCCCCCCCCC1=C(O)C(=O)C=C(O)C1=O [Embelin] + NC(=O)Nc1cc(-c2cccc(F)c2)sc1C(=O)N[C@H]1CCCNC1 [AZD7762] (partner 0.2 µM)
relative viability ([1]; first compound 0.08 µM): 1.14
relative viability ([1]; first compound 0.8 µM): 1.15
relative viability ([1]; first compound 2.53 µM): 1.46
relative viability ([1]; first compound 8 µM): 1.41
relative viability ([2]; first compound 0.08 µM): 0.865
relative viability ([2]; first compound 0.8 µM): 1.05
relative viability ([2]; first compound 2.53 µM): 0.91
relative viability ([2]; first compound 8 µM): 0.756
relative viability ([3]; first compound 0.08 µM): 0.936
relative viability ([3]; first compound 0.8 µM): 1.08
relative viability ([3]; first compound 2.53 µM): 1.12
relative viability ([3]; first compound 8 µM): 1
relative viability ([4]; first compound 0.08 µM): 0.821
relative viability ([4]; first compound 0.8 µM): 0.723
relative viability ([4]; first compound 2.53 µM): 0.89
relative viability ([4]; first compound 8 µM): 0.606
relative viability ([5]; first compound 0.08 µM): 0.339
relative viability ([5]; first compound 0.8 µM): 0.419
relative viability ([5]; first compound 2.53 µM): 0.345
relative viability ([5]; first compound 8 µM): 0.258
relative viability ([6]; first compound 0.08 µM): 1.07
relative viability ([6]; first compound 0.8 µM): 0.994
relative viability ([6]; first compound 2.53 µM): 0.999
relative viability ([6]; first compound 8 µM): 1.11
relative viability ([7]; first compound 0.08 µM): 0.641
relative viability ([7]; first compound 0.8 µM): 0.697
relative viability ([7]; first compound 2.53 µM): 0.61
relative viability ([7]; first compound 8 µM): 0.676
relative viability ([8]; first compound 0.08 µM): 1.17
relative viability ([8]; first compound 0.8 µM): 1.16
relative viability ([8]; first compound 2.53 µM): 1.14
relative viability ([8]; first compound 8 µM): 1.2
relative viability ([9]; first compound 0.08 µM): 0.63
relative viability ([9]; first compound 0.8 µM): 0.765
relative viability ([9]; first compound 2.53 µM): 0.716
relative viability ([9]; first compound 8 µM): 0.542
relative viability ([10]; first compound 0.08 µM): 0.191
relative viability ([10]; first compound 0.8 µM): 0.21
relative viability ([10]; first compound 2.53 µM): 0.193
relative viability ([10]; first compound 8 µM): 0.278
relative viability ([11]; first compound 0.08 µM): 0.765
relative viability ([11]; first compound 0.8 µM): 0.888
relative viability ([11]; first compound 2.53 µM): 0.797
relative viability ([11]; first compound 8 µM): 0.724
relative viability ([12]; first compound 0.08 µM): 0.906
relative viability ([12]; first compound 0.8 µM): 0.958
relative viability ([12]; first compound 2.53 µM): 1.06
relative viability ([12]; first compound 8 µM): 0.914
relative viability ([13]; first compound 0.08 µM): 0.335
relative viability ([13]; first compound 0.8 µM): 0.4
relative viability ([13]; first compound 2.53 µM): 0.372
relative viability ([13]; first compound 8 µM): 0.233
relative viability ([14]; first compound 0.08 µM): 0.223
relative viability ([14]; first compound 0.8 µM): 0.248
relative viability ([14]; first compound 2.53 µM): 0.205
relative viability ([14]; first compound 8 µM): 0.268
relative viability ([15]; first compound 0.08 µM): 0.384
relative viability ([15]; first compound 0.8 µM): 0.568
relative viability ([15]; first compound 2.53 µM): 0.734
relative viability ([15]; first compound 8 µM): 0.363
relative viability ([16]; first compound 0.08 µM): 0.37
relative viability ([16]; first compound 0.8 µM): 0.455
relative viability ([16]; first compound 2.53 µM): 0.52
relative viability ([16]; first compound 8 µM): 0.362
relative viability ([17]; first compound 0.08 µM): 0.533
relative viability ([17]; first compound 0.8 µM): 0.503
relative viability ([17]; first compound 2.53 µM): 0.647
relative viability ([17]; first compound 8 µM): 0.582
relative viability ([18]; first compound 0.08 µM): 0.884
relative viability ([18]; first compound 0.8 µM): 0.888
relative viability ([18]; first compound 2.53 µM): 0.916
relative viability ([18]; first compound 8 µM): 0.814
relative viability ([19]; first compound 0.08 µM): 1.34
relative viability ([19]; first compound 0.8 µM): 1.37
relative viability ([19]; first compound 2.53 µM): 1.2
relative viability ([19]; first compound 8 µM): 1.28
relative viability ([20]; first compound 0.08 µM): 0.317
relative viability ([20]; first compound 0.8 µM): 0.314
relative viability ([20]; first compound 2.53 µM): 0.291
relative viability ([20]; first compound 8 µM): 0.281

CCCCCCCCCCCC1=C(O)C(=O)C=C(O)C1=O [Embelin] + Nc1ncn([C@H]2C[C@H](O)[C@@H](CO)O2)c(=O)n1 [Decitabine] (partner 2 µM)
relative viability ([1]; first compound 0.08 µM): 0.619
relative viability ([1]; first compound 0.8 µM): 0.694
relative viability ([1]; first compound 2.53 µM): 0.697
relative viability ([1]; first compound 8 µM): 0.617
relative viability ([2]; first compound 0.08 µM): 0.647
relative viability ([2]; first compound 0.8 µM): 0.617
relative viability ([2]; first compound 2.53 µM): 0.578
relative viability ([2]; first compound 8 µM): 0.704
relative viability ([3]; first compound 0.08 µM): 0.514
relative viability ([3]; first compound 0.8 µM): 0.519
relative viability ([3]; first compound 2.53 µM): 0.589
relative viability ([3]; first compound 8 µM): 0.513
relative viability ([21]; first compound 0.08 µM): 0.676
relative viability ([21]; first compound 0.8 µM): 0.715
relative viability ([21]; first compound 2.53 µM): 0.657
relative viability ([21]; first compound 8 µM): 0.751
relative viability ([22]; first compound 0.08 µM): 0.407
relative viability ([22]; first compound 0.8 µM): 0.412
relative viability ([22]; first compound 2.53 µM): 0.369
relative viability ([22]; first compound 8 µM): 0.351
relative viability ([4]; first compound 0.08 µM): 0.481
relative viability ([4]; first compound 0.8 µM): 0.608
relative viability ([4]; first compound 2.53 µM): 0.627
relative viability ([4]; first compound 8 µM): 0.548
relative viability ([5]; first compound 0.08 µM): 0.254
relative viability ([5]; first compound 0.8 µM): 0.21
relative viability ([5]; first compound 2.53 µM): 0.163
relative viability ([5]; first compound 8 µM): 0.209
relative viability ([23]; first compound 0.08 µM): 0.436
relative viability ([23]; first compound 0.8 µM): 0.396
relative viability ([23]; first compound 2.53 µM): 0.361
relative viability ([23]; first compound 8 µM): 0.266
relative viability ([6]; first compound 0.08 µM): 0.981
relative viability ([6]; first compound 0.8 µM): 0.953
relative viability ([6]; first compound 2.53 µM): 0.986
relative viability ([6]; first compound 8 µM): 0.944
relative viability ([8]; first compound 0.08 µM): 0.396
relative viability ([8]; first compound 0.8 µM): 0.419
relative viability ([8]; first compound 2.53 µM): 0.455
relative viability ([8]; first compound 8 µM): 0.352
relative viability ([9]; first compound 0.08 µM): 0.717
relative viability ([9]; first compound 0.8 µM): 0.813
relative viability ([9]; first compound 2.53 µM): 0.812
relative viability ([9]; first compound 8 µM): 0.559
relative viability ([10]; first compound 0.08 µM): 0.336
relative viability ([10]; first compound 0.8 µM): 0.333
relative viability ([10]; first compound 2.53 µM): 0.38
relative viability ([10]; first compound 8 µM): 0.355
relative viability ([11]; first compound 0.08 µM): 0.776
relative viability ([11]; first compound 0.8 µM): 0.882
relative viability ([11]; first compound 2.53 µM): 0.919
relative viability ([11]; first compound 8 µM): 0.821
relative viability ([12]; first compound 0.08 µM): 0.514
relative viability ([12]; first compound 0.8 µM): 0.446
relative viability ([12]; first compound 2.53 µM): 0.506
relative viability ([12]; first compound 8 µM): 0.456
relative viability ([13]; first compound 0.08 µM): 1.01
relative viability ([13]; first compound 0.8 µM): 1.08
relative viability ([13]; first compound 2.53 µM): 0.942
relative viability ([13]; first compound 8 µM): 0.91
relative viability ([14]; first compound 0.08 µM): 0.241
relative viability ([14]; first compound 0.8 µM): 0.264
relative viability ([14]; first compound 2.53 µM): 0.266
relative viability ([14]; first compound 8 µM): 0.235
relative viability ([15]; first compound 0.08 µM): 0.193
relative viability ([15]; first compound 0.8 µM): 0.22
relative viability ([15]; first compound 2.53 µM): 0.205
relative viability ([15]; first compound 8 µM): 0.19
relative viability ([16]; first compound 0.08 µM): 0.51
relative viability ([16]; first compound 0.8 µM): 0.549
relative viability ([16]; first compound 2.53 µM): 0.587
relative viability ([16]; first compound 8 µM): 0.573
relative viability ([17]; first compound 0.08 µM): 1.02
relative viability ([17]; first compound 0.8 µM): 0.96
relative viability ([17]; first compound 2.53 µM): 1.14
relative viability ([17]; first compound 8 µM): 0.916
relative viability ([18]; first compound 0.08 µM): 0.788
relative viability ([18]; first compound 0.8 µM): 0.79
relative viability ([18]; first compound 2.53 µM): 0.795
relative viability ([18]; first compound 8 µM): 0.782
relative viability ([19]; first compound 0.08 µM): 0.278
relative viability ([19]; first compound 0.8 µM): 0.295
relative viability ([19]; first compound 2.53 µM): 0.361
relative viability ([19]; first compound 8 µM): 0.225
relative viability ([20]; first compound 0.08 µM): 0.341
relative viability ([20]; first compound 0.8 µM): 0.306
relative viability ([20]; first compound 2.53 µM): 0.372
relative viability ([20]; first compound 8 µM): 0.336
relative viability ([24]; first compound 0.08 µM): 0.454
relative viability ([24]; first compound 0.8 µM): 0.479
relative viability ([24]; first compound 2.53 µM): 0.433
relative viability ([24]; first compound 8 µM): 0.393

Source: the supplement of paper PMC10307832
